The test system of data set [1] is Candida albicans. As to the kind of experiment: In vivo antifungal activity against Candida albicans ATCC SC5314 infected in BALB/c mouse assessed as decrease in PD-L1 expression level at 10 ug, ip for 14 days by Western blot analysis. It is filed as functional, organism-based. To be noted: dose 10.0 µg, time 14.0 day. For orientation: A western blot detects proteins with antibodies after separation by electrophoresis.

Data set [2] relates to Candida albicans. The experiment in a line: In vivo antifungal activity against Candida albicans ATCC SC5314 infected in BALB/c mouse assessed as fold increase in CD3+ expression level in T cells at 10 ug, ip for 14 days by immunohistochemical analysis. It is filed as functional, T-cell. Conditions: dose 10 µg, time 14 day.
For data set [3], the target named is T1, Lanosterol 14-alpha demethylase (Candida albicans (strain SC5314 / ATCC MYA-2876) (Yeast), UniProt P10613). The experiment in a line: Inhibition of Candida albicans ATCC SC5314 CYP51 assessed as eburicol content at 4 ug/ml measured after 16 hrs by GC-MS analysis (Rvb= 3.47%). Also on record: scale not given: the % may be the effect or the level left. To be noted: at 4 µg/mL.
T1 sequence (P10613 whole entry): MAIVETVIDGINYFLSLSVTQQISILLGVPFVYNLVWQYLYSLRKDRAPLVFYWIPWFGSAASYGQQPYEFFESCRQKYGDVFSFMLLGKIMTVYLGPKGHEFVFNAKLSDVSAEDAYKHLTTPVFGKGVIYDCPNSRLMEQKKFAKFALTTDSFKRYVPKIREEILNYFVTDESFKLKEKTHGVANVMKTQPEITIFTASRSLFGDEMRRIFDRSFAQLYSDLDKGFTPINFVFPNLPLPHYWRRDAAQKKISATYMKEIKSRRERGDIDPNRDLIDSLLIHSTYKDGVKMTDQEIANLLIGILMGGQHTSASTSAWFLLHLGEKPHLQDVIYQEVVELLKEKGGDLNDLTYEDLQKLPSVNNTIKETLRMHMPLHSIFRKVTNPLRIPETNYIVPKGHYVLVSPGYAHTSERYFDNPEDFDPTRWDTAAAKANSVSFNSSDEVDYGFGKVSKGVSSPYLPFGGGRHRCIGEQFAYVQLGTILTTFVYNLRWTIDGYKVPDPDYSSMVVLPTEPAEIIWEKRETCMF

The subject of data set [4] is Candida albicans. As to the kind of experiment: In vivo antifungal activity against Candida albicans ATCC SC5314 infected in BALB/c mouse assessed as decrease in PD-L1 expression level at 10 ug, ip for 14 days by immunohistochemical analysis. It is filed as functional, organism-based. Conditions: dose 10.0 µg, time 14.0 day.
For data set [5], the system named is Candida albicans. As to the kind of experiment: Antifungal activity against fluconazole-resistant Candida albicans CaR assessed as inhibition of fungal growth incubated for 72 hrs by CLSI based liquid medium microdilution method. It is filed as functional. Background: In broth dilution the organism is exposed to a series of concentrations in liquid medium.
Data set [6] concerns Candida albicans. As to the kind of experiment: Induction of apoptosis in Candida albicans ATCC SC5314 assessed as increase in blue fluorescence intensity at 1 microM/ml incubated for 48 hrs by Hoechst 33258/PI staining based fluorescence microscopy. It is filed as functional, organism-based.
The test system of data set [7] is Candida albicans. The experiment in a line: Induction of ROS generation in Candida albicans ATCC SC5314 assessed as increase in fluorescence intensity at 1 microM/ml incubated for 48 hrs by fluorescent microscopy. The format is functional, organism-based.
Data set [8] addresses Programmed cell death protein 1/Programmed cell death 1 ligand 1 (Homo sapiens, UniProt Q9NZQ7). The experiment in a line: Inhibition of PD-1/PD-L1 interaction (unknown origin) incubated for 15 mins by ELISA. It is filed as protein-complex assay. Background: In an ELISA, binding on a coated surface is turned into a signal by an enzyme label.
Data set [9] concerns the target T1, Lanosterol 14-alpha demethylase. As to the kind of experiment: Inhibition of Candida albicans ATCC SC5314 CYP51 assessed as other unknown sterol content at 4 ug/ml measured after 16 hrs by GC-MS analysis (Rvb= 3.82%). Also on record: scale not given: the % may be the effect or the level left. To be noted: at 4 µg/mL.
Data set [10] relates to Candida albicans. As to the kind of experiment: In vivo antifungal activity against Candida albicans ATCC SC5314 infected in BALB/c mouse assessed as decrease in necrotic cell debris in tissue gap at 10 ug, ip for 14 days by GMS staining based microscopy. It is filed as functional, organism-based. Conditions: dose 10.0 µg, time 14.0 day.
In a further data set the test system is Cryptococcus neoformans. As to the kind of experiment: Antifungal activity against Cryptococcus neoformans ZKCC 2209 assessed as inhibition of fungal growth incubated for 72 hrs by CLSI based liquid medium microdilution method. The format is functional.
The nature of data set [11]: Toxicity in BALB/c mouse infected with Candida albicans ATCC SC5314 assessed as morphological changes in heart at 10 ug, ip for 14 days by H and E staining based microscopy. It is filed as organism-based. Conditions: in vivo, 336 h, dose 10 µg, time 14 day.
In data set [12] the test system is Candida albicans. The experiment in a line: In vivo antifungal activity against Candida albicans ATCC SC5314 infected in BALB/c mouse assessed as decrease in IFN-gamma expression level at 10 ug, ip for 14 days by immunohistochemical analysis. The format is functional, organism-based. Conditions: dose 10.0 µg, time 14.0 day.
Data set [13] concerns Candida albicans. As to the kind of experiment: In vivo antifungal activity against Candida albicans ATCC SC5314 infected in BALB/c mouse assessed as fold increase in CD8+ expression level in T cells at 10 ug, ip for 14 days by immunohistochemical analysis. It is filed as functional, T-cell.
Data set [14] deals with Candida albicans. The experiment in a line: Induction of apoptosis in Candida albicans ATCC SC5314 assessed as late apoptotic cells at 1 microM/ml incubated for 48 hrs by Hoechst 33258/PI staining based flow cytometry (Rvb= 0.05 +/- 0.01%). The format is functional.
The test system of data set [15] is Candida albicans. As to the kind of experiment: In vivo antifungal activity against Candida albicans ATCC SC5314 infected in BALB/c mouse assessed as decrease in IL-2 expression level at 10 ug, ip for 14 days by immunohistochemical analysis. The format is functional, organism-based. Conditions: dose 10.0 µg, time 14.0 day.
Data set [16] concerns Candida albicans. As to the kind of experiment: Induction of mitochondrial membrane depolarization in Candida albicans ATCC SC5314 assessed as polarized cells at 1 microM/ml incubated for 24 hrs by JC-1 staining based flow cytometry assay (reference value: 0.28 +/- 0.02%). It is filed as functional.
The target of data set [17] is Programmed cell death 1 ligand 1 (Homo sapiens, UniProt Q9NZQ7). As to the kind of experiment: Binding affinity to PD-L1 (unknown origin) assessed as dissociation constant by SPR analysis.
Chain of Programmed cell death 1 ligand 1 (Q9NZQ7 whole entry): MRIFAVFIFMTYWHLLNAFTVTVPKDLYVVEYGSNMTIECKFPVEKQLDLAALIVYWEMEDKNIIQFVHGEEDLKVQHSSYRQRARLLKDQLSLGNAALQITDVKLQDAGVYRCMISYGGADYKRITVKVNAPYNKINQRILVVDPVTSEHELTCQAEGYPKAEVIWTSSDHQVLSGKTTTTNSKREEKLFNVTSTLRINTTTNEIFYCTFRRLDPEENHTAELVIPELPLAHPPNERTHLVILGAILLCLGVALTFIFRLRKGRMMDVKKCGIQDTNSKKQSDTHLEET
A short description of data set [18]: Toxicity in BALB/c mouse infected with Candida albicans ATCC SC5314 assessed as plasma BUN level at 10 ug, ip for 14 days. The format is organism-based. To be noted: in vivo, 336 h, dose 10 µg, time 14 day.
The subject of data set [19] is Candida albicans. The experiment in a line: Antifungal activity against Candida albicans ATCC SC5314 assessed as inhibition of fungal growth incubated for 72 hrs by CLSI based liquid medium microdilution method. It is filed as functional.
The test system of data set [20] is Candida albicans. The experiment in a line: In vivo antifungal activity against Candida albicans ATCC SC5314 infected in BALB/c mouse assessed as decrease in PD-L1 expression level at 10 ug, ip for 14 days in presence of Biphenyl isopropyl ester by Western blot analysis. Conditions: dose 10.0 µg, time 14.0 day. The format is functional, organism-based.
In data set [21] the test system is Candida albicans. The experiment in a line: In vivo antifungal activity against Candida albicans ATCC SC5314 infected in BALB/c mouse assessed as decrease in IL-2 expression level at 10 ug, ip for 14 days in presence of Biphenyl isopropyl ester by immunohistochemical analysis. It is filed as functional, organism-based. To be noted: dose 10.0 µg, time 14.0 day.

A short description of data set [22]: Toxicity in BALB/c mouse infected with Candida albicans ATCC SC5314 assessed as plasma ALT level at 10 ug, ip for 14 days in presence of Biphenyl isopropyl ester. To be noted: in vivo, 336 h, dose 10 µg, time 14 day. The format is organism-based.
Data set [23] deals with Candida albicans. The experiment in a line: In vivo antifungal activity against Candida albicans ATCC SC5314 infected in BALB/c mouse assessed as fold increase in CD8+ expression level in T cells at 10 ug, ip for 14 days in presence of Biphenyl isopropyl ester by immunohistochemical analysis. The format is functional, T-cell. Conditions: dose 10 µg, time 14 day.
Data set [24] can be described thus: Toxicity in BALB/c mouse infected with Candida albicans ATCC SC5314 assessed as morphological changes in liver at 10 ug, ip for 14 days in presence of Biphenyl isopropyl ester by H and E staining based microscopy. It is filed as organism-based. To be noted: in vivo, 336 h, dose 10 µg, time 14 day.
Data set [25] in a line: Toxicity in BALB/c mouse infected with Candida albicans ATCC SC5314 assessed as morphological changes in kidney at 10 ug, ip for 14 days in presence of Biphenyl isopropyl ester by H and E staining based microscopy. The format is organism-based. Conditions: in vivo, 336 h, dose 10 µg, time 14 day.
In data set [26] the test system is Candida albicans. The experiment in a line: In vivo antifungal activity against Candida albicans ATCC SC5314 infected in BALB/c mouse assessed as decrease in number of exogenous fungal cells at 10 ug, ip for 14 days in presence of Biphenyl isopropyl ester by H and E staining based microscopy. The format is functional, organism-based. To be noted: dose 10.0 µg, time 14.0 day.

The test system of data set [27] is Cell membrane. As to the kind of experiment: Induction of cell membrane integrity disruption in Candida albicans ATCC SC5314 assessed as disappearance of nuclei at 1 microM/ml incubated for 48 to 72 hrs by TEM analysis. It is filed as subcellular. Conditions: time 48-72 hrs.
For data set [28], the system named is Cell membrane. As to the kind of experiment: Induction of cell membrane integrity disruption in Candida albicans ATCC SC5314 assessed as seepage of cell contents into external region at 1 microM/ml incubated for 96 hrs by TEM analysis. It is filed as subcellular.
The test system of data set [29] is Cell membrane. The experiment in a line: Induction of cell membrane integrity disruption in Candida albicans ATCC SC5314 assessed as reduced cytoplasmic density at 1 microM/ml incubated for 48 to 72 hrs by TEM analysis. To be noted: time 48-72 hrs. The format is subcellular.
Data set [30] has as its system Cell membrane. As to the kind of experiment: Induction of cell membrane integrity disruption in Candida albicans ATCC SC5314 assessed as cell destruction at 1 microM/ml incubated for 96 hrs by TEM analysis. The format is subcellular.

We go through three compounds from ChEMBL document CHEMBL5365481, “Design, Synthesis, and Activity Evaluation of Novel Dual-Target Inhibitors with Antifungal and Immunoregulatory Properties” (J Med Chem, 2023).

One may read the MIC50 as an inhibitory concentration at the 50% level, which refers to growth in some studies and to a panel of isolates in others. For orientation: IC50 means the concentration that gives 50% inhibition. One may read the Kd as the constant that tells how readily two partners part at equilibrium.

SMILES strings stand for the structures. Converted amounts (≈) assume the structure as drawn. The source made the active and inactive calls. The rule behind the calls is not given here.

Chain of Programmed cell death protein 1/Programmed cell death 1 ligand 1 (Q15116 whole entry): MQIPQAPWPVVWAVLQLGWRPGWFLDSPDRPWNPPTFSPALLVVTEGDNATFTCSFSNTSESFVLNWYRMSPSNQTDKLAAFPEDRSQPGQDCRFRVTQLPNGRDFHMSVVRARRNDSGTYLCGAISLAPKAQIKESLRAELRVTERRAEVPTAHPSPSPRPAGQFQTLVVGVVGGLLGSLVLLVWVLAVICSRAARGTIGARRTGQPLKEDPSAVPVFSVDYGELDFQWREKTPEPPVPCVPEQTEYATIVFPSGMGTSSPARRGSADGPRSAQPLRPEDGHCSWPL
Chain of Programmed cell death protein 1/Programmed cell death 1 ligand 1 (Q9NZQ7 whole entry): as the sequence (Q9NZQ7 whole entry) above

Turning to `CC(C)c1ccc(C(=O)N2CCC(NC(=O)c3nc(-n4ccnc4)c4ccccc4n3)CC2)cc1`, the outcome in the data set with Candida albicans [1], with Candida albicans [4], in the data set on Candida albicans [6], with Candida albicans [7], with Candida albicans [10] and in the data set on Candida albicans [12] was Active. Further, in the data set on Candida albicans [15], the outcome was Active. For the same compound, the “fold change (FC)” value in the data set on Candida albicans [2] came to 1.46; with Candida albicans [13] (dose 10 µg, time 14 day), 1.46. Also, the Activity is 45.04% in data set [3]; 5.58% in data set [9]; “Non-Toxic” in [11]; 0.19% in the data set on Candida albicans [14]; 0.1% in the data set on Candida albicans [16]; 20.2 mM in data set [18]. In addition, the MIC50 with Candida albicans [5] was 4 µg/mL (≈ 8.54 µM); with Cryptococcus neoformans it was 0.5 µg/mL (≈ 1.07 µM); in the data set on Candida albicans [19], 0.25 µg/mL (≈ 0.534 µM). The same compound registered an IC50 in [8] of 39 nM. The Kd in data set [17] worked out at 60.7 nM.

Turning to `OC(Cn1cncn1)(Cn1cncn1)c1ccc(F)cc1F` [FLUCONAZOLE], the outcome in the data set with Candida albicans [1], with Candida albicans [6], in the data set on Candida albicans [20], in the data set on Candida albicans [7], with Candida albicans [21] and in the data set with Candida albicans [10] was Active. For the same compound, the outcome in the data set with Candida albicans [12], with Candida albicans [15] and with Candida albicans [26] was Active. In addition, the Activity in data set [3] is on record as 46.52%; in [9], 5.58%; in [11], “Non-Toxic”; in data set [22], 37.2 IU/L; in the data set with Candida albicans [14], 0.07%; in the data set on Candida albicans [16], 0.39%. In addition, the Activity in [18] was 24.2 mM; in data set [24], “Non-Toxic”; in data set [25], “Non-Toxic”. Besides, the MIC50 was more than 8 µg/mL in the data set on Candida albicans [5], 1 µg/mL (≈ 3.27 µM) in the data set on Cryptococcus neoformans and 0.5 µg/mL (≈ 1.63 µM) with Candida albicans [19]. Further, the “fold change (FC)” value in the data set on Candida albicans [23] was 1.46.

Turning to `CC(=O)c1ccc(C(=O)N2CCC(NC(=O)c3nc(-n4cncn4)c4ccccc4n3)CC2)cc1`, the outcome with Cell membrane [27], in the data set on Candida albicans [1], with Candida albicans [4], with Cell membrane [28], in the data set with Candida albicans [6] and with Candida albicans [7] was Active. Besides, the Activity result is “Active” with Cell membrane [29]; “Active” with Candida albicans [10]; “Active” with Candida albicans [12]; “Active” in the data set with Candida albicans [13] (T-cell, dose 10.0 µg, time 14.0 day); “Active” in the data set with Candida albicans [15]; “Active” in the data set on Cell membrane [30]. Moreover, in the data set with Candida albicans [2], the “fold change (FC)” value is on record as 1.46. The Activity in data set [3] is 43.15%; in data set [9], 5.74%; in data set [11], “Non-Toxic”; in the data set on Candida albicans [14] it was 0.07%; in the data set with Candida albicans [16], 0.62%; in data set [18] it was 17.9 mM. The MIC50 in the data set on Candida albicans [5] stood at 2 µg/mL (≈ 4.26 µM); in the data set on Cryptococcus neoformans it was 0.5 µg/mL (≈ 1.06 µM); with Candida albicans [19], 0.25 µg/mL (≈ 0.532 µM). The IC50 in [8] was determined as 17 nM. Moreover, in data set [17], the Kd was found to be 65.5 nM.
